The values below are quoted from earlier work in PubChem BioAssay AID1259409 (Chemical Carcinogenesis Research Information System (CCRIS), 2018).

This series has as its system rodent chemically induced tumor inhibition, incidence and multiplicity. The series is described as follows: CCRIS tumor inhibitor studies. Particulars: Dose [Inhibitor]: 0.

For the compound `Clc1ccc(-c2cc(Cl)c(Cl)c(Cl)c2)cc1Cl`, the “tumour outcome (control, treated, inhibition, significance)” value (Carcinogen: 7,12-DIMETHYLBENZ[A]ANTHRACENE, 57-97-6, 2.5 NG/KG BW ADMINISTERED INTRAGASTRICALLY TO MOTHERS ON DAYS 13 TO 19 POST-CONCEPTION (STUDY DURATION: 178 D), Route [Inhibitor]: IN UTERO, ORAL, Species: RAT, Strain/Sex: SD/FEMALE, Target Tissue: Type of Lesion: MAMMARY GLAND: TUMOR, Dose [Carcinogen]: 20 MG/KG BW ADMINISTERED TO 50-DAY OLD OFFSPRING) was 93%, 93%, 0%, not significant; the “tumour outcome (control, treated, inhibition, significance)” value (Carcinogen: 7,12-DIMETHYLBENZ[A]ANTHRACENE, 57-97-6, 7.5 UG/KG BW ADMINISTERED INTRAGASTRICALLY TO MOTHERS ON DAYS 13 TO 19 POST-CONCEPTION (STUDY DURATION: 178 D), Route [Inhibitor]: IN UTERO, ORAL, Species: RAT, Strain/Sex: SD/FEMALE, Target Tissue: Type of Lesion: MAMMARY GLAND: TUMOR, Dose [Carcinogen]: 20 MG/KG BW ADMINISTERED TO 50-DAY OLD OFFSPRING) is 93%, 78%, 17%, p<0.05; the “tumour outcome (control, treated, inhibition, significance)” value (Carcinogen: 7,12-DIMETHYLBENZ[A]ANTHRACENE, 57-97-6, 250 NG/KG BW ADMINISTERED INTRAGASTRICALLY TO MOTHERS ON DAYS 13 TO 19 POST-CONCEPTION (STUDY DURATION: 178 D), Route [Inhibitor]: IN UTERO, ORAL, Species: RAT, Strain/Sex: SD/FEMALE, Target Tissue: Type of Lesion: MAMMARY GLAND: TUMOR, Dose [Carcinogen]: 20 MG/KG BW ADMINISTERED TO 50-DAY OLD OFFSPRING) is recorded as 93%, 96%, -3%, not significant.

Regarding `C[C@]12CC[C@@H]3c4ccc(O)cc4CC[C@H]3[C@@H]1CC[C@@H]2O`, the “tumour outcome (control, treated, inhibition, significance)” value (Carcinogen: DIETHYLNITROSAMINE, 55-18-5, 0.5-1 MG IN PELLET IMPLANTED 1/MONTH FOR 26 WK BEGINNING 30 D POST CARCINOGEN TREATMENT. DOSING BEGAN SAME DAY OF ORC, Route [Inhibitor]: SUBCUTANEOUS, Species: MOUSE, Strain/Sex: B6C3F1/MALE, Target Tissue: Type of Lesion: LIVER: TUMOR, Dose [Carcinogen]: 2.5 UG/G BW IN SALINE ONCE, Promoter: NONE) is listed as 19/30 (63%), 6/23 (26%), 59%, not significant; the “tumour outcome (control, treated, inhibition, significance)” value (Carcinogen: N-ETHYL-N-NITROSOUREA, 759-73-9, 0.1 MG PELLET IMPLANTED WITHIN 24 HR OF BIRTH AND REPLACED EVERY 2 MO (STUDY DURATION: 8 MO), Route [Inhibitor]: SUBCUTANEOUS IMPLANT, Species: RAT, Strain/Sex: WF X LE F1/FEMALE, Target Tissue: Type of Lesion: TRIGEMINAL NERVE: SCHWANNOMA, Dose [Carcinogen]: 40 MG/KG ONCE WITHIN 24 HR OF BIRTH, Promoter: NONE USED) is 14/19 (74%), 12/20 (60%), 19%, not calculated; the “tumour outcome (control, treated, inhibition, significance)” value (Carcinogen: N-ETHYL-N-NITROSOUREA, 759-73-9, 0.1 MG PELLET IMPLANTED WITHIN 24 HR OF BIRTH AND REPLACED EVERY 2 MO (STUDY DURATION: 8 MO), Route [Inhibitor]: SUBCUTANEOUS IMPLANT, Species: RAT, Strain/Sex: WF X LE F1/MALE, Target Tissue: Type of Lesion: TRIGEMINAL NERVE: SCHWANNOMA, Dose [Carcinogen]: 40 MG/KG ONCE WITHIN 24 HR OF BIRTH, Promoter: NONE USED) is 19/21 (91%), 13/22 (59%), 35%, p<0.05; the “tumour outcome (control, treated, inhibition, significance)” value (Carcinogen: N-METHYL-N-NITROSOUREA, 684-93-5, 2.5 MG IN CHOLESTEROL PELLET IMPLANTED 2 WK PRIOR TO CARCINOGEN DOSE AND REPLACED EVERY 4 WK (STUDY DURATION: 36 WK), Route [Inhibitor]: SUBCUTANEOUS IMPLANT, Species: RAT, Strain/Sex: F344/FEMALE, Target Tissue: Type of Lesion: MAMMARY GLAND: CARCINOMA, Dose [Carcinogen]: 50 MG/KG BW ONCE, Promoter: NONE USED) is 10/20 (50%), 1/28 (4%), 92%, p<0.01; the “tumour outcome (control, treated, inhibition, significance)” value (Carcinogen: N-METHYL-N-NITROSOUREA, 684-93-5, 2.5 MG IN CHOLESTEROL PELLET IMPLANTED AT TIME OF CARCINOGEN DOSE AND REPLACED EVERY 4 WK (STUDY DURATION: 35 WK), Route [Inhibitor]: SUBCUTANEOUS IMPLANT, Species: RAT, Strain/Sex: F344/MALE, Target Tissue: Type of Lesion: MAMMARY GLAND: CARCINOMA, Dose [Carcinogen]: 50 MG/KG BW ONCE, Promoter: NONE USED) is listed as 10?20 (50%), 7/16 (44%), 12%, not significant; the “tumour outcome (control, treated, inhibition, significance)” value (Carcinogen: N-METHYL-N-NITROSOUREA, 684-93-5, 20 UG IN SILASTIC CAPSULES FOR 3 WK IMPLANTED 2 WK POST CARCINOGEN TREATMENT (STUDY DURATION: 10 MO), Route [Inhibitor]: SUBCUTANEOUS, Species: RAT, Strain/Sex: LEWIS/FEMALE, Target Tissue: Type of Lesion: MAMMARY GLAND: TUMOR, Dose [Carcinogen]: 50 MG/KG BW ONCE AT 7 WK OF AGE) is recorded as 11/11 (100%), 8/11 (73%), 27%, not significant. Also, the “tumour outcome (control, treated, inhibition, significance)” value by setting is: (Carcinogen: N-METHYL-N-NITROSOUREA, 684-93-5, 30 MG IN SILASTIC CAPSULES FOR 3 WK IMPLANTED 2 WK POST CARCINOGEN TREATMENT (STUDY DURATION: 10 MO), Route [Inhibitor]: SUBCUTANEOUS, Species: RAT, Strain/Sex: LEWIS/FEMALE, Target Tissue: Type of Lesion: MAMMARY GLAND: TUMOR, Dose [Carcinogen]: 50 MG/KG BW ONCE AT 7 WK OF AGE) 11/11 (100%), 2/12 (17%), 83%, p<0.001; (Carcinogen: N-METHYL-N-NITROSOUREA, 684-93-5, 100 UG IN SILASTIC CAPSULES FOR 2 WK IMPLANTED 2 WK POST CARCINOGEN TREATMENT (STUDY DURATION: 10 MO), Route [Inhibitor]: SUBCUTANEOUS, Species: RAT, Strain/Sex: LEWIS/FEMALE, Target Tissue: Type of Lesion: MAMMARY GLAND: TUMOR, Dose [Carcinogen]: 50 MG/KG BW ONCE AT 7 WK OF AGE) 13/15 (87%), 7/16 (44%), 49%, p<0.05; (Carcinogen: N-METHYL-N-NITROSOUREA, 684-93-5, 100 UG IN SILASTIC CAPSULES FOR 3 WK IMPLANTED 2 WK POST CARCINOGEN TREATMENT (STUDY DURATION: 10 MO), Route [Inhibitor]: SUBCUTANEOUS, Species: RAT, Strain/Sex: LEWIS/FEMALE, Target Tissue: Type of Lesion: MAMMARY GLAND: TUMOR, Dose [Carcinogen]: 50 MG/KG BW ONCE AT 7 WK OF AGE) 11/11 (100%), 2/12 (17%), 83%, p<0.001; (Carcinogen: N-METHYL-N-NITROSOUREA, 684-93-5, 200 UG IN SILASTIC CAPSULES FOR 1 WK IMPLANTED 2 WK POST CARCINOGEN TREATMENT (STUDY DURATION: 10 MO), Route [Inhibitor]: SUBCUTANEOUS, Species: RAT, Strain/Sex: LEWIS/FEMALE, Target Tissue: Type of Lesion: MAMMARY GLAND: TUMOR, Dose [Carcinogen]: 50 MG/KG BW ONCE AT 7 WK OF AGE) 13/15 (87%), 3/15 (20%), 77%, p<0.01; (Carcinogen: N-METHYL-N-NITROSOUREA, 684-93-5, 200 UG IN SILASTIC CAPSULES FOR 3 WK IMPLANTED 2 WK POST CARCINOGEN TREATMENT (STUDY DURATION: 10 MO), Route [Inhibitor]: SUBCUTANEOUS, Species: RAT, Strain/Sex: LEWIS/FEMALE, Target Tissue: Type of Lesion: MAMMARY GLAND: TUMOR, Dose [Carcinogen]: 50 MG/KG BW ONCE AT 7 WK OF AGE) 11/11 (100%), 2/12 (17%), 83%, p<0.001. Also, the outcome (Carcinogen: N-ETHYL-N-NITROSOUREA, 759-73-9, 0.1 MG PELLET IMPLANTED WITHIN 24 HR OF BIRTH AND REPLACED EVERY 2 MO (STUDY DURATION: 8 MO), Route [Inhibitor]: SUBCUTANEOUS IMPLANT, Species: RAT, Strain/Sex: WF X LE F1/MALE, Target Tissue: Type of Lesion: KIDNEY: TUMOR, Dose [Carcinogen]: 40 MG/KG ONCE WITHIN 24 HR OF BIRTH, Promoter: NONE USED) was 0/21 (0%), 7/22 (32%), -100%, not calculated.

Regarding `C[C@]12CCC(=O)C(O)=C1CC[C@@H]1[C@@H]2CC[C@]2(C)C(=O)CC[C@@H]12`, the “tumour outcome (control, treated, inhibition, significance)” value is 100%, 95%, 5%, not significant (Carcinogen: METHYLNITROSOUREA, 684-93-5, 6 MG/D 7 D/WK FOR DURATION OF STUDY BEGINNING 1 WK PRIOR TO CARCINOGEN DOSE (STUDY DURATION: 107 D), Route [Inhibitor]: GAVAGE, Species: RAT, Strain/Sex: SPRAGUE-DAWLEY/FEMALE, Target Tissue: Type of Lesion: MAMMARY GLAND: TUMOR, Dose [Carcinogen]: 50 MG/KG BW ONCE, Promoter: NONE USED) and 100%, 100%, 0%, not significant (Carcinogen: METHYLNITROSOUREA, 684-93-5, 15 MG/D 7 D/WK FOR DURATION OF STUDY BEGINNING 1 WK PRIOR TO CARCINOGEN DOSE (STUDY DURATION: 107 D), Route [Inhibitor]: GAVAGE, Species: RAT, Strain/Sex: SPRAGUE-DAWLEY/FEMALE, Target Tissue: Type of Lesion: MAMMARY GLAND: TUMOR, Dose [Carcinogen]: 50 MG/KG BW ONCE, Promoter: NONE USED).
